US20250127933A1, “Method of verifying effectiveness and stability of linker in Drug Delivery system and Structure therefor” (INDUSTRY-ACADEMIC COOPERATION FOUNDATION OF SUNCHON …, priority 2023, published 2025)

Legend:
[1] = system: Leucine aminopeptidase (LAP); assay: Enzymatic kinetic study of LAP reaction of activatable fluorescent probes; type: biochemical, porcine; conditions: for Fluorophore released in LAP reaction (% yield) / Fluorophore released in LAP reaction (concentration) / kinetics of LAP reaction (time-dependent fluorescence emission): 1 μM probe, 10 μg/mL LAP, PBS pH 7.4, 37° C., 80 min; for Fluorophore released in LAP reaction (concentration): calculated from fluorophore calibration curves; for LAP response / fluorophore release (in words): LAP reaction, enzymatic study
Procedure: All spectroscopic readings were measured with BioTek Synergy™ H1 spectrophotometer, using 96 well microplate. A parent stock solution of probes was dissolved in DMSO to obtain 10 mM. Leucine aminopeptidase was dissolved in deionized water to obtain 1 mg/mL. All spectra measurements were carried out in PBS buffer solution (PBS buffer, 10 mM, pH 7.4, 37° C. The final volume in 96 well microplate was adjusted to 200 μL. RPMI 1640 was obtained from Thermo Scientific (Waltham, MA, USA). Bestatin hydrochloride (LAP inhibitor), DMSO and 2-mercaptoethanol were purchased from Sigma Aldrich (St. Louis, Mo, USA).
The kinetic study for LAP reaction was performed by incubation of 2 μg of LAP ([…]) with 1 μM probe in PBS buffer (10 mM, pH 7.4). The plate was incubated at 37° C. for 80 min with continuous shaking, and the emission spectra were recorded at the corresponding wavelength over time. A solution of LAP (2 μg/200 μL) was pretreated with bestatin (0, 1, 10, 50 and 100 μM) in PBS (10 mM, pH 7.4) at 37° C. for 30 min, and then 1 μM of probe was added. The mixture was incubated at 37° C., and the fluorescence was recorded on Synergy™ H1 using a 96-well microplate.
All reagents and solvents were obtained from commercial sources Sigma-Aldrich Chemical Co., Combi-Block, Tokyo Chemical Industries, Daejung Chemicals, and Alfa Aesar and used without purification. Anhydrous solvents were purchased from Sigma-Aldrich and used under dry nitrogen atmosphere. Ultrapure water was obtained from a water ultra-purification system. Completion of reaction was confirmed by thin layer chromatography (TLC) on Kiesegel 60F254 from Merck and all synthesized compounds were purified by flash column chromatography using ZEOprep 60 (40-63) […] silica gel from ZEOCHEM. ^1H and ^13C NMR spectra were measured on JEOL JNMECZ400s/L1 (400 MHZ) and CDCl3 or DMSO-d6 was used as the NMR solvents. The chemical shifts were quoted in parts per million (ppm) and the coupling constant (J) were reported in hertz unit (Hz). Chemical shifts (in ppm) were referenced to tetramethylsilane (δ=0 ppm) in CDCl3 as an internal standard. ^13C NMR spectra were reported in ppm referenced to the center line of the triplet at 77.0 ppm for CDCl3 or 39.5 ppm for DMSO-d6. All in vitro enzyme assays were performed by taking the absorbance and emission on Synergy™ H1 microplate reader from BioTek. Leucine aminopeptidase from porcine kidney and other enzymes were purchased from Sigma-Aldrich.

[2] = pH-dependent stability test; type: physicochemical; conditions: 1 μM probe, pH 2 to 12, 25° C.
Procedure: Thermal stability was evaluated by the incubation of 1 μM of the probe in PBS buffer (pH 7.4) at different temperatures ranging from 25 to 45° C. for 20 min and reading fluorescence at each temperature. The pH stability test was performed by the incubation with 1 μM probe in different pH buffers (2 to 13) at 25° C. and recording fluorescence at each pH.

[3] = system: Leucine aminopeptidase (LAP); assay: Enzymatic kinetic study of LAP reaction of activatable fluorescent probes; type: biochemical, porcine; conditions: 1 μM probe; LAP 1, 5, 10, 20, 50, 100 μg/mL; PBS pH 7.4, 80 min, 37° C.
HepG2 cells = assay: Confocal live cell imaging in HepG2 cells; type: cell-based; conditions: 1 μM probe, LysoTracker Red DND-99, DAPI, HepG2 cells
Procedure: HepG2 cells were maintained in DMEM medium containing 10% FBS and 1% antibiotics in the 15 μ-plate 96 well black (ibidi, Germany). HepG2 cells were incubated with or without 500 μM of bestatin, LAP inhibitor, for 1 h and subsequently treated with 1 μM of probe and Lyso-Tracker™ Red (Thermo Scientific, USA) for 1 h. The treated cells were washed three times with PBS and treated with 10 μM of DAPI (Thermo Scientific, USA) for 2 h. Imaged were collected by Leica confocal microscopy (TCS SP5 AOBS/Tandem, Leica, Germany). Lyso-Tracker™ Red was excited by 514 nm and detected by 570-620 nm, compounds were excited by 476 nm and detected by 505-545 nm, DAPI was excited by 405 nm and detected by 420-470 nm.

[4] = Ex vivo plasma stability in mice serum; type: in vitro ADME, C57BL/6 mice; conditions: 10 μM probe; for % survival rate of probe in serum: C57BL/6 mice serum, 37° C.
Procedure: Animal was treated strictly according to the guidelines for laboratory animal care and use issued by the Sunchon National University Institutional Animal Care and Use Committee (SCNU IACUC). Female C57/BL6 mice (7 weeks old), weighing about 17-20 g, were purchased from Orientbio (Orientbio Inc., Seongnam, Korea). Blood was collected from the posterior orbital plexus in normal mice and centrifuged (5000 rpm, 4° C., 5 minutes) to obtain serum. The stability study was performed by incubation of the fluorescent probe (10 μM) or rhodol fluorophore (0.1, 0.3, 1, 3 and 10 μM) with serum at 37° C. . . . The fluorescence was detected on Synergy™ H1 microplate reader.

| SMILES | Fluorophore released in LAP reaction (% yield) [1] [%] | Fluorophore released in LAP reaction (concentration) [1] [µM] | kinetics of LAP reaction (time-dependent fluorescence emission) [1] | also measured |
| --- | --- | --- | --- | --- |
| CCN(CC)c1ccc2c(c1)Oc1cc(NC(=O)[C@@H](N)CC(C)C)ccc1C21OC(=O)c2ccccc21 (stereo partly drawn) [Probe 1, (2S)-2-Amino-N-(3′-(diethylamino)-3-oxo-3H-spiro[isobenzofuran-1,9′-xanthen]-6′-yl)-4-methylpentanamide] | 66.7 | ~0.667 | – | pH-dependent stability (fluorescence of fluorophore released by degradation) [2]: increased fluorescence emission in the pH range of 7-9 |
| COc1ccc2c(c1)Oc1cc(NC(=O)[C@@H](N)CC(C)C)ccc1C21OC(=O)c2ccccc21 (stereo partly drawn) [Probe 2, (2S)-2-Amino-N-(3′-methoxy-3-oxo-3H-spiro[isobenzofuran-1,9′-xanthen]-6′-yl)-4-methylpentanamide] | 89.7 | ~0.897 | faster kinetics than those of the corresponding P2 and P3 probes | LAP response at various concentrations of LAP [3]: nearly maximal responses at 10 μg/mL of LAP; lysosomal colocalization in confocal live cell imaging (HepG2 cells): colocalized into lysosomes with LysoTracker; time-dependent fluorescence emission in serum ([4]; C57/BL6 mice serum, 48 h): rapidly increased; % survival rate of probe in serum ([4]; 4 h p.i.): 45%; % survival rate of probe in serum ([4]; 48 h): 39%; pH-dependent stability (fluorescence of fluorophore released by degradation) [2]: increased fluorescence emission in the pH range of 7-9 |
| CCN(CC)c1ccc2c(c1)Oc1cc(OCc3ccc(NC(=O)[C@@H](N)CC(C)C)cc3)ccc1C21OC(=O)c2ccccc21 (stereo partly drawn) [Probe 5, (2S)-2-Amino-N-(4-(((3′-(diethylamino)-3-oxo-3H-spiro[isobenzofuran-1,9′-xanthen]-6′-yl)oxy)methyl)phenyl)-4-methylpentanamide] | 19.1 | ~0.191 | notably slower kinetics | LAP response / fluorophore release (in words) [1]: lower responses |
| COc1ccc2c(c1)Oc1cc(OCc3ccc(NC(=O)[C@@H](N)CC(C)C)cc3)ccc1C21OC(=O)c2ccccc21 (stereo partly drawn) [Probe 6, (2S)-2-Amino-N-(4-(((3′-methoxy-3-oxo-3H-spiro[isobenzofuran-1,9′-xanthen]-6′-yl)oxy)methyl)phenyl)-4-methylpentanamide] | 37.3 | ~0.373 | notably slower kinetics | LAP response at various concentrations of LAP [3]: nearly maximal responses at 10 μg/mL of LAP; LAP response / fluorophore release (in words) [1]: lower responses |
| CCN(CC)c1ccc2c(c1)Oc1cc(NC(=O)[C@@H](N)CC(C)C)ccc1C21OCc2ccccc21 (stereo partly drawn) [Probe 7, (2S)-2-Amino-N-(3′-(diethylamino)-3H-spiro[isobenzofuran-1,9′-xanthen]-6′-yl)-4-methylpentanamide] | 74.1 | ~0.741 | – | – |
| COc1ccc2c(c1)Oc1cc(NC(=O)[C@@H](N)CC(C)C)ccc1C21OCc2ccccc21 (stereo partly drawn) [Probe 8, (2S)-2-Amino-N-(3′-methoxy-3H-spiro[isobenzofuran-1,9′-xanthen]-6′-yl)-4-methylpentanamide] | 93.9 | ~0.939 | faster kinetics than those of the corresponding P2 and P3 probes | – |
| COc1ccc2c(c1)Oc1cc(OCc3ccc(NC(=O)[C@@H](N)CC(C)C)cc3)ccc1C21OCc2ccccc21 (stereo partly drawn) [Probe 12, (2S)-2-Amino-N-(4-(((3′-methoxy-3H-spiro[isobenzofuran-1,9′-xanthen]-6′-yl)oxy)methyl)phenyl)-4-methylpentanamide] | 73.6 | ~0.736 | – | – |

Further lines, with some results ahead:

| Fluorophore released in LAP reaction (% yield) [1] [%] | Fluorophore released in LAP reaction (concentration) [1] [µM] | kinetics of LAP reaction (time-dependent fluorescence emission) [1] | SMILES | also measured |
| --- | --- | --- | --- | --- |
| – | ~0.987 | – | CCN(CC)c1ccc2c(c1)Oc1cc(NC(=O)OCc3ccc(NC(=O)[C@@H](N)CC(C)C)cc3)ccc1C21OC(=O)c2ccccc21 (stereo partly drawn) [Probe 3, 4-((S)-2-Amino-4-methylpentanamido)benzyl (3′-(diethylamino)-3-oxo-3H-spiro[isobenzofuran-1,9′-xanthen]-6′-yl)carbamate] | Fluorophore released in LAP reaction (% yield) ([1]; Rhoda-P2): 98.7%; Fluorophore released in LAP reaction (% yield) ([1]; listed as Rhoda-P2): 74.7%; pH-dependent stability (fluorescence of fluorophore released by degradation) [2]: no change in fluorescence emission according to the change in pH |
| 32.8 | ~0.328 | – | CCN(CC)c1ccc2c(c1)Oc1cc(NC(=O)OCc3ccc(NC(=O)[C@@H](N)CC(C)C)cc3)ccc1C21OCc2ccccc21 (stereo partly drawn) [Probe 9, 4-((S)-2-Amino-4-methylpentanamido)benzyl (3′-(diethylamino)-3H-spiro[isobenzofuran-1,9′-xanthen]-6′-yl)carbamate] | – |
| 67.6 | ~0.676 | – | COc1ccc2c(c1)Oc1cc(NC(=O)OCc3ccc(NC(=O)[C@@H](N)CC(C)C)cc3)ccc1C21OCc2ccccc21 (stereo partly drawn) [Probe 10, 4-((S)-2-Amino-4-methylpentanamido)benzyl (3′-methoxy-3H-spiro[isobenzofuran-1,9′-xanthen]-6′-yl)carbamate] | – |
| 29.8 | ~0.298 | notably slower kinetics | CCN(CC)c1ccc2c(c1)Oc1cc(OCc3ccc(NC(=O)[C@@H](N)CC(C)C)cc3)ccc1C21OCc2ccccc21 (stereo partly drawn) [Probe 11, (2S)-2-Amino-N-(4-(((3′-(diethylamino)-3H-spiro[isobenzofuran-1,9′-xanthen]-6′-yl)oxy)methyl)phenyl)-4-methylpentanamide] | LAP response / fluorophore release (in words) [1]: lower responses |
